# Measured values: US20210346288A1, “PHARMACEUTICAL FORMULATION CONTAINING ACTIVE METABOLITES OF REMDESIVIR FOR INHALATION” (priority 2020, published 2021)
# Experiments:
# [1] = Influence of pH and pH adjuster on stability of RV-MP solution (HPLC impurities, 60° C./75% RH); format: physicochemical
# Method: (§1) Remdesivir monophosphate disodium salt is the salt of nucleoside monophosphate. The stability of remdesivir monophosphate disodium salt (referred to as RV-MP) is highly dependent on the pH. Four samples were prepared, having pH 3.0, 4.0, 5.0, 6.0. 23 ml of purified water was adjusted to the target pH with hydrochloric acid. RV-MP according to the amounts provided in table 5 was added to the solution, and the resulting mixture was sonicated until completely dissolved. The resulting mixture was adjusted to the target pH with hydrochloric acid. Finally, purified water was added to provide a final weight of 25.0 g.
# (§2) Impurities Detection Method: HPLC Detection Method • Column: YMC-triart C 18, 4.6*150 mm, S-5 μm, 12 nm; • Flow: 0.8 ml/min • Injection volume: […], • Column temperature: 40° C. • A: Weigh 2.7 g of sodium dihydrogen phosphate, add 1 L of purified water, stir to dissolve, and filter to obtain. • B: Methanol
# as §1, with “The” for “Remdesivir monophosphate disodium salt is the salt of nucleoside monophosphate. The”, “Five” for “Four”, “3.2, 3.5, 3.8, 4.0.” for “4.0, 5.0, 6.0.”, “citric” for “hydrochloric”, “Table 10” for “table 5”
# as §1, with “The” for “Remdesivir monophosphate disodium salt is the salt of nucleoside monophosphate. The”, “Five” for “Four”, “3.2, 3.5, 3.8, 4.0.” for “4.0, 5.0, 6.0.”, “HCl.” for “hydrochloric acid.”, “Table 16” for “table 5”, “Then the” for “The”
# [2] = Strong degradation test under light conditions (HPLC impurities); format: physicochemical
# Method: as §2
# Sample 15: 60 mg RV_MP dissolved in 100 ml purified water.
# The sample 15 was placed in light conditions, and the placement time was 2 hours, 4 hours, 6 hours, 24 hours, 48 hours, 72 hours, and the impurity detection method in Example 5 was used to detect the samples.
# The impurity detection method of the present invention is the same as the impurity detection method in Example 5.
substance,measurement,setting,value
remdesivir monophosphate disodium salt [RV-MP],Stability of RV-MP solution at 60° C.,[1]; 60° C.,unstable
same,Stability of RV-MP formulations,[1]; adjusting pH using HCl,stable at pH 3.0-4.0
same,pH of highest stability,"[1]; adjusting pH using HCl, pH 3.0-6.0 tested",3.0
same,Stability of resulting solution,"[1]; using HCl to adjust the pH, compared with citric acid",more stable
same,Stability of resulting solution,"[1]; using citric acid to adjust the pH, especially at pH3.0",unstable
same,Stability of RV-MP solution under light condition,[2],unstable
